Reference: patent US5807535A, “Metal complexes of hydroxyaryl containing aminocarboxylic acid chelating agents” (Australian Nuclear Science & Technology Organisation, priority 1992, dated 1998)
Where two headings read alike, the source gives them in different places.

Legend:
[1] = Biodistribution of 99mTc complexes in rats; assay type: in vivo, Australian Albino Wistar Rats; conditions: rats; for tissue uptake at 0.5 min / tissue uptake at 1 min / tissue uptake at 0.05 h / tissue uptake at 5 min / tissue uptake at 10 min: rat; for tissue uptake at 0.5 min: 30 sec
Outline: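 Chelators were dissolved in basic saline, brought to about pH 6 with HCl, and reduced with excess stannous chloride before one equivalent volume of sodium 99mTcO4 (10-50 mCi/ml) was added, giving roughly 1 mg/ml chelator. Labelling efficacy was checked by ITLC-SG. Complexes were diluted in saline to 15 μCi/100 μl for rat biodistribution, with tissue uptake expressed as %ID/g.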

[2] = Serum stability of Copper-67 complexes; assay type: in vitro ADME
Procedure: The serum stability was determined for selected derivatives and typical procedure is as follows.
The ligand (1) was labelled with Cu-67 at a ligand:metal ratio of 4:1.

[3] = blood, read-out: biodistribution blood
[4] = bone, read-out: biodistribution bone
[5] = brain, read-out: biodistribution brain
[6] = eyes, read-out: biodistribution eyes
[7] = heart, read-out: biodistribution heart
[8] = kidneys, read-out: biodistribution kidneys
[9] = liver, read-out: biodistribution liver
[10] = lungs, read-out: biodistribution lungs
[11] = muscle, read-out: biodistribution muscle
[12] = pancreas, read-out: biodistribution pancreas
[13] = skin, read-out: biodistribution skin
[14] = spleen, read-out: biodistribution spleen
[15] = stomach, read-out: biodistribution stomach
[16] = tail, read-out: biodistribution tail
[17] = thymus, read-out: biodistribution thymus
[18] = thyroid, read-out: biodistribution thyroid
[19] = total git, read-out: biodistribution tot GIT

O=C(O)CN(CCN(CC(=O)O)CC(=O)Nc1ccccc1O)CC(=O)Nc1ccccc1O [Compound 1]
tissue uptake at 0.5 min [1, 3]: 1.93 %ID/g
tissue uptake at 1 min [1, 3]: 1.71 %ID/g
tissue uptake at 0.05 h ([1]; blood, 3 minutes, selected data, read-out: Blood): 1.16 %ID/g
tissue uptake at 5 min [1, 3]: 0.83 %ID/g
tissue uptake at 10 min [1, 3]: 0.71 %ID/g
tissue uptake at 0.5 min [1, 4]: 0.31 %ID/g
tissue uptake at 1 min [1, 4]: 0.32 %ID/g
tissue uptake at 0.05 h ([1]; bone, 3 min, read-out: biodistribution bone): 0.26 %ID/g
tissue uptake at 5 min [1, 4]: 0.25 %ID/g
tissue uptake at 10 min [1, 4]: 0.19 %ID/g
tissue uptake at 0.5 min [1, 5]: 0.14 %ID/g
tissue uptake at 1 min [1, 5]: 0.09 %ID/g
tissue uptake at 0.05 h ([1]; brain, 3 min, read-out: biodistribution brain): 0.06 %ID/g
tissue uptake at 5 min [1, 5]: 0.05 %ID/g
tissue uptake at 10 min [1, 5]: 0.04 %ID/g
tissue uptake at 0.5 min [1, 6]: 0.19 %ID/g
tissue uptake at 1 min [1, 6]: 0.17 %ID/g
tissue uptake at 0.05 h ([1]; eyes, 3 min, read-out: biodistribution eyes): 0.18 %ID/g
tissue uptake at 5 min [1, 6]: 0.17 %ID/g
tissue uptake at 10 min [1, 6]: 0.13 %ID/g
tissue uptake at 0.5 min [1, 7]: 0.75 %ID/g
tissue uptake at 1 min [1, 7]: 0.67 %ID/g
tissue uptake at 0.05 h ([1]; heart, 3 min, read-out: biodistribution heart): 0.46 %ID/g
tissue uptake at 5 min [1, 7]: 0.33 %ID/g
tissue uptake at 10 min [1, 7]: 0.27 %ID/g
tissue uptake at 0.05 h ([1]; kidney, 3 minutes, selected data, read-out: Kidney): 4.12 %ID/g
tissue uptake at 0.5 min [1, 8]: 6.73 %ID/g
tissue uptake at 1 min [1, 8]: 6.55 %ID/g
tissue uptake at 0.05 h ([1]; kidneys, 3 min, read-out: biodistribution kidneys): 4.12 %ID/g
tissue uptake at 5 min [1, 8]: 2.87 %ID/g
tissue uptake at 10 min [1, 8]: 2.72 %ID/g
tissue uptake at 0.5 min [1, 9]: 1.73 %ID/g
tissue uptake at 1 min [1, 9]: 2.01 %ID/g
tissue uptake at 0.05 h ([1]; liver, 3 minutes, selected data, read-out: Liver): 1.54 %ID/g
tissue uptake at 5 min [1, 9]: 1.34 %ID/g
tissue uptake at 10 min [1, 9]: 0.76 %ID/g
tissue uptake at 0.5 min [1, 10]: 1.15 %ID/g
tissue uptake at 1 min [1, 10]: 1.13 %ID/g
tissue uptake at 0.05 h ([1]; lungs, 3 min, read-out: biodistribution lungs): 0.8 %ID/g
tissue uptake at 5 min [1, 10]: 0.54 %ID/g
tissue uptake at 10 min [1, 10]: 0.46 %ID/g
tissue uptake at 0.5 min [1, 11]: 0.28 %ID/g
tissue uptake at 1 min [1, 11]: 0.27 %ID/g
tissue uptake at 0.05 h ([1]; muscle, 3 min, read-out: biodistribution muscle): 0.26 %ID/g
tissue uptake at 5 min [1, 11]: 0.27 %ID/g
tissue uptake at 10 min [1, 11]: 0.15 %ID/g
tissue uptake at 0.5 min [1, 12]: 0.49 %ID/g
tissue uptake at 1 min [1, 12]: 0.51 %ID/g
tissue uptake at 0.05 h ([1]; pancreas, 3 min, read-out: biodistribution pancreas): 0.44 %ID/g
tissue uptake at 5 min [1, 12]: 0.44 %ID/g
tissue uptake at 10 min [1, 12]: 0.3 %ID/g
tissue uptake at 0.5 min [1, 13]: 0.37 %ID/g
tissue uptake at 1 min [1, 13]: 0.43 %ID/g
tissue uptake at 0.05 h ([1]; skin, 3 min, read-out: biodistribution skin): 0.49 %ID/g
tissue uptake at 5 min [1, 13]: 0.53 %ID/g
tissue uptake at 10 min [1, 13]: 0.4 %ID/g
tissue uptake at 0.5 min [1, 14]: 0.53 %ID/g
tissue uptake at 1 min [1, 14]: 0.42 %ID/g
tissue uptake at 0.05 h ([1]; spleen, 3 min, read-out: biodistribution spleen): 0.26 %ID/g
tissue uptake at 5 min [1, 14]: 0.2 %ID/g
tissue uptake at 10 min [1, 14]: 0.15 %ID/g
tissue uptake at 0.5 min [1, 15]: 0.14 %ID/g
tissue uptake at 1 min [1, 15]: 0.28 %ID/g
tissue uptake at 0.05 h ([1]; stomach, 3 min, read-out: biodistribution stomach): 0.32 %ID/g
tissue uptake at 5 min [1, 15]: 0.11 %ID/g
tissue uptake at 10 min [1, 15]: 0.12 %ID/g
tissue uptake at 0.5 min [1, 16]: 0.68 %ID/g
tissue uptake at 1 min [1, 16]: 0.56 %ID/g
tissue uptake at 0.05 h ([1]; tail, 3 min, read-out: biodistribution tail): 0.8 %ID/g
tissue uptake at 5 min [1, 16]: 0.73 %ID/g
tissue uptake at 10 min [1, 16]: 0.83 %ID/g
tissue uptake at 0.5 min [1, 17]: 0.38 %ID/g
tissue uptake at 1 min [1, 17]: 0.35 %ID/g
tissue uptake at 0.05 h ([1]; thymus, 3 min, read-out: biodistribution thymus): 0.27 %ID/g
tissue uptake at 5 min [1, 17]: 0.19 %ID/g
tissue uptake at 10 min [1, 17]: 0.14 %ID/g
tissue uptake at 0.5 min [1, 18]: 1.42 %ID/g
tissue uptake at 1 min [1, 18]: 1.15 %ID/g
tissue uptake at 0.05 h ([1]; thyroid, 3 min, read-out: biodistribution thyroid): 1.17 %ID/g
tissue uptake at 5 min [1, 18]: 0.59 %ID/g
tissue uptake at 10 min [1, 18]: 0.4 %ID/g
tissue uptake at 0.5 min [1, 19]: 0.27 %ID/g
tissue uptake at 1 min [1, 19]: 0.34 %ID/g
tissue uptake at 0.05 h ([1]; total git, 3 min, read-out: biodistribution tot GIT): 0.59 %ID/g
tissue uptake at 5 min [1, 19]: 0.79 %ID/g
tissue uptake at 10 min [1, 19]: 1.22 %ID/g
biodistribution blood ([1]; 3 min): 1.16 % Injected dose per gram
biodistribution liver ([1]; 3 min): 1.54 % Injected dose per gram
further loss in serum ([2]; Cu-67, after 24 hours): no further loss
degraded at 4 h ([2]; serum, Cu-67, initial 4 hours, read-out: loss in serum): 4%
